These results are taken from patent US11203591B2, “Substituted 6-azabenzimidazole compounds” (Gilead Sciences, Inc., priority 2018, dated 2021).

human HPK1 (MAP4K1), sequence (Q92918 17-274): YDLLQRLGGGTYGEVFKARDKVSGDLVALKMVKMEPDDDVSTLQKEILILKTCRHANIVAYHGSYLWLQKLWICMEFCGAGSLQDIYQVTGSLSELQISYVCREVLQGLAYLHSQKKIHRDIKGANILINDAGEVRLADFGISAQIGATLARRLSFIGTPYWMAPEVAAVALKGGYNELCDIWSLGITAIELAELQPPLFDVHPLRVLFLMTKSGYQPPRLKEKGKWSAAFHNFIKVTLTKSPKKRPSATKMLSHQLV

The first experiment concerns the target human HPK1 (MAP4K1) (Homo sapiens (Human), UniProt Q92918). The experiment is described as follows: HPK1 IC50 Assay (TR-FRET peptide phosphorylation). As to conditions: 0.15 nM HPK1, 10 μM ATP, 1 μM STK S1 peptide substrate; geometric mean. The experiment is classed as biochemical. The procedure: The enzymatic activity of human HPK1 (MAP4K1) was monitored in a biochemical assay in the presence or absence of compounds and using a synthetic peptide substrate. An increase in phosphorylation of the peptide by HPK1 was indicative of its kinase activity.
Recombinant HPK1 kinase domain produced via baculovirus infection of insect cells was obtained from Proteros (Proteros Biostructures #PR-0322) and was pre-activated in the presence of 2 mM ATP (Sigma-Aldrich, cat #GE27-2056-01) and 2 mM magnesium chloride for 16 hours at 4° C. The protein reaction mixture was then loaded to a desalting column (Thermo Fisher Scientific, Cat #89889) to remove excess ATP. HPK1 was eluted with buffer containing 20 mM Tris (2-Amino-2-(hydroxymethyl)propane-1,3-diol) pH 8.0, 150 mM NaCl, 2 mM dithiothreitol and 5% glycerol, and was frozen at −80° C. for later use. HPK1 dual phosphorylation was confirmed by mass spectrometry.
Ten nanoliters of test compounds dissolved in DMSO at various concentrations were dispensed into a 384-well ProxiPlate (PerkinElmer #6008289). Five microliters of a solution of recombinant HPK1 diluted in HPK1 kinase assay buffer (50 mM BES [N,N-Bis(2-hydroxyethyl)-2-aminoethanesulfonic acid], pH 7.0; 10 mM magnesium chloride; 0.01% Triton X-100; 1 mM dithiothreitol; 0.01% bovine serum albumin; 0.1 mM sodium orthovanadate) was added to the compound-containing plate and was incubated for 15 minutes at 25° C. Five microliters of a mixture of ATP (Sigma-Aldrich #A6559) and peptide substrate STK S1 (Cisbio #61ST1BLC) diluted in HPK1 kinase assay buffer was then added to start the reaction. Final concentrations were 0.15 nM for HPK1, 10 μM for ATP, and 1 μM for the STK S1 peptide substrate. The reaction mixture was incubated at 25° C. for 3 hours and was stopped with the addition of 10 μl of an EDTA (Ethylenediaminetetraacetic acid)-containing detection buffer (Cisbio #62SDBRDF) supplemented with Europium cryptate-labeled anti-phospho-serine/threonine antibodies (Cisbio #62ST1PEJ) and XL665-labeled streptavidin (Cisbio #610SAXLG). The mixture was incubated for 16 hours at room temperature and peptide phosphorylation was measured by time-resolved fluorescence energy transfer (665 nm/620 nm) on an Envision plate reader (PerkinElmer).
Data in Table 1 were normalized based on positive (staurosporine) and negative (DMSO) controls. Least squares curve fittings were performed using a four-parameter variable slope nonlinear regression model. IC50 is defined as the concentration of compound required to inhibit 50% of maximum phosphorylation. IC50 values from multiple experiments were averaged by geometric mean and the standard deviation was calculated.
For orientation: Time-resolved FRET reads energy transfer from a long-lived donor to a nearby acceptor.
`CCNC(=O)c1cc(Nc2nc(-c3ccc4c(c3)N([C@H]3C[C@@](C)(N5CCCCC5)C3)C(=O)C4(C)C)cc3ncn(C(C)C)c23)c(F)cc1Cl` [Example 290, 2-chloro-5-((6-(3,3-dimethyl-1-((1s,3s)-3-methyl-3-(piperidin-1-yl)cyclobutyl)-2-oxoindolin-6-yl)-3-isopropyl-3H-imidazo[4,5-c]pyridin-4-yl)amino)-N-ethyl-4-fluorobenzamide] had an IC50 of 0.07 nM.
The molecule `CCNC(=O)c1cc(Nc2nc(-c3cnc4c(c3)N([C@H]3C[C@@](C)(N5CCCC6(CC6)C5)C3)C(=O)C4(C)C)cc3ncn(C(C)C)c23)c(F)c(F)c1C` [Example 285, 5-((6-(3,3-dimethyl-1-((1s,3s)-3-methyl-3-(5-azaspiro[2.5]octan-5-yl)cyclobutyl)-2-oxo-2,3-dihydro-1H-pyrrolo[3,2-b]pyridin-6-yl)-3-isopropyl-3H-imidazo[4,5-c]pyridin-4-yl)amino)-N-ethyl-3,4-difluoro-2-methylbenzamide] came in with an IC50 of 0.1 nM.
Regarding `Cc1c(C(=O)NCC(F)F)cc(Nc2nc(-c3cnc4c(c3)N([C@H]3C[C@@](C)(N5CCCC6(CC6)C5)C3)C(=O)C4(C)C)cc3ncn(C(C)C)c23)c(F)c1F` [Example 284, N-(2,2-difluoroethyl)-5-((6-(3,3-dimethyl-1-((1s,3s)-3-methyl-3-(5-azaspiro[2.5]octan-5-yl)cyclobutyl)-2-oxo-2,3-dihydro-1H-pyrrolo[3,2-b]pyridin-6-yl)-3-isopropyl-3H-imidazo[4,5-c]pyridin-4-yl)amino)-3,4-difluoro-2-methylbenzamide], the IC50 was found to be 0.1 nM.

The same experiment, now with this note: recombinant HPK1 kinase domain 0.15 nM, 10 μM ATP, 1 μM STK S1 peptide; geometric mean of multiple experiments.
`CC(C)n1cnc2cc(-c3cnc4c(c3)N([C@H]3C[C@@](C)(N5CCCCCC5)C3)C(=O)C4(C)C)nc(Nc3cc(C(=O)NC4(C(F)F)CC4)c(Cl)c(F)c3F)c21` [Example 226, 5-((6-(1-((1s,3s)-3-(Azepan-1-yl)-3-methylcyclobutyl)-3,3-dimethyl-2-oxo-2,3-dihydro-1H-pyrrolo[3,2-b]pyridin-6-yl)-3-isopropyl-3H-imidazo[4,5-c]pyridin-4-yl)amino)-2-chloro-N-(1-(difluoromethyl)cyclopropyl)-3,4-difluorobenzamide]: the IC50 came out at 0.1 nM.
On the same count and under the same terms, under `CC(C)n1cnc2cc(-c3cnc4c(c3)N(C3CC(C)(N5CCC6C[C@@H]6C5)C3)C(=O)C4(C)C)nc(Nc3cc(C(=O)NC4(C(F)F)CC4)c(Cl)c(F)c3F)c21` (stereo partly shown) [Example 261, 5-((6-(1-((1s,3s)-3-(3-azabicyclo[4.1.0]heptan-3-yl)-3-methylcyclobutyl)-3,3-dimethyl-2-oxo-2,3-dihydro-1H-pyrrolo[3,2-b]pyridin-6-yl)-3-isopropyl-3H-imidazo[4,5-c]pyridin-4-yl)amino)-2-chloro-N-(1-(difluoromethyl)cyclopropyl)-3,4-difluorobenzamide] stands 0.09 nM.
Consider `CC(C)n1cnc2cc(-c3cnc4c(c3)N([C@H]3C[C@@](C)(N5CCCOCC5)C3)C(=O)C4(C)C)nc(Nc3cc(C(=O)NC4(C(F)F)CC4)c(Cl)c(F)c3F)c21` [Example 198, 2-Chloro-N-(1-(difluoromethyl)cyclopropyl)-5-((6-(3,3-dimethyl-1-((1s,3s)-3-methyl-3-(1,4-oxazepan-4-yl)cyclobutyl)-2-oxo-2,3-dihydro-1H-pyrrolo[3,2-b]pyridin-6-yl)-3-isopropyl-3H-imidazo[4,5-c]pyridin-4-yl)amino)-3,4-difluorobenzamide], for which the IC50 worked out at 0.01 nM.
With `CNC(=O)c1cc(Nc2nc(-c3ccc4c(c3)N([C@H]3C[C@@H](N5CC(C)(C)CC(C)(C)C5)C3)C(=O)C43CCN(C(C)=O)CC3)cc3ncn(C4CC4)c23)ccc1C` [Example 160], the IC50 was found to be 0.08 nM.
`Cc1ccc(Nc2nc(-c3ccc4c(c3)N([C@H]3C[C@@H](N5CCCCC5)C3)C(=O)C4(C)C)cc3ncn(C(C)C)c23)cc1C(=O)NC1CC1` [Example 26]: the IC50 was 0.1 nM.
In the case of `Cc1c(C(=O)NC2CC2)cc(Nc2nc(-c3cnc4c(c3)N([C@H]3C[C@@](C)(N5CCCCC5)C3)C(=O)C4(C)C)cc3ncn(C(C)C)c23)c(F)c1F` [Example 221, N-Cyclopropyl-5-((6-(3,3-dimethyl-1-((1s,3s)-3-methyl-3-(piperidin-1-yl)cyclobutyl)-2-oxo-2,3-dihydro-1H-pyrrolo[3,2-b]pyridin-6-yl)-3-isopropyl-3H-imidazo[4,5-c]pyridin-4-yl)amino)-3,4-difluoro-2-methylbenzamide], the IC50 is 0.07 nM.
In the case of `CNC(=O)c1cc(Nc2nc(-c3ccc4c(c3)N([C@H]3C[C@@H](N5CCCC(C(F)F)C5)C3)C(=O)C4(C)C)cc3ncn(C(C)C)c23)ccc1C` (stereo partly shown) [Example 105, 5-((6-(1-((1s,3s)-3-(3-(difluoromethyl)piperidin-1-yl)cyclobutyl)-3,3-dimethyl-2-oxoindolin-6-yl)-3-isopropyl-3H-imidazo[4,5-c]pyridin-4-yl)amino)-N,2-dimethylbenzamide], the IC50 is 0.2 nM.
Turning to `Cc1cc(F)c(Nc2nc(-c3cnc4c(c3)N([C@H]3C[C@@](C)(N5CCCCC5)C3)CC4(C)C)cc3ncn(C(C)C)c23)cc1C(=O)NC1(C(F)F)CC1` [Example 219, N-(1-(Difluoromethyl)cyclopropyl)-5-((6-(3,3-dimethyl-1-((1s,3s)-3-methyl-3-(piperidin-1-yl)cyclobutyl)-2,3-dihydro-1H-pyrrolo[3,2-b]pyridin-6-yl)-3-isopropyl-3H-imidazo[4,5-c]pyridin-4-yl)amino)-4-fluoro-2-methylbenzamide], the IC50 was found to be 0.2 nM.
The same measure, in the same setting: for `Cc1c(C(=O)NC2(C(F)F)CC2)cc(Nc2nc(-c3cnc4c(c3)N([C@H]3C[C@@](C)(N5CCOC(C)(C)C5)C3)C(=O)C4(C)C)cc3ncn(C(C)C)c23)c(F)c1F` [Example 188, N-(1-(Difluoromethyl)cyclopropyl)-5-((6-(1-((1s,3s)-3-(2,2-dimethylmorpholino)-3-methylcyclobutyl)-3,3-dimethyl-2-oxo-2,3-dihydro-1H-pyrrolo[3,2-b]pyridin-6-yl)-3-isopropyl-3H-imidazo[4,5-c]pyridin-4-yl)amino)-3,4-difluoro-2-methylbenzamide] the value was 0.4 nM; for `Cc1c(C(=O)NC2(C(F)F)CC2)cc(Nc2nc(-c3cnc4c(c3)N([C@H]3C[C@@](C)(N5CCCC6(CC6)C5)C3)C(=O)C4(C)C)cc3ncn(C(C)C)c23)c(F)c1F` [Example 194, N-(1-(Difluoromethyl)cyclopropyl)-5-((6-(3,3-dimethyl-1-((1s,3s)-3-methyl-3-(5-azaspiro[2.5]octan-5-yl)cyclobutyl)-2-oxo-2,3-dihydro-1H-pyrrolo[3,2-b]pyridin-6-yl)-3-isopropyl-3H-imidazo[4,5-c]pyridin-4-yl)amino)-3,4-difluoro-2-methylbenzamide], 0.06 nM.
Same read-out and setting: under `Cc1c(C(=O)NC2(C(F)F)CC2)cc(Nc2nc(-c3cnc4c(c3)N([C@H]3C[C@@](C)(N5CCC[C@@H](F)C5)C3)C(=O)C4(C)C)cc3ncn(C(C)C)c23)c(F)c1F` [Example 196, N-(1-(Difluoromethyl)cyclopropyl)-3,4-difluoro-5-((6-(1-((1S,3s)-3-((R)-3-fluoropiperidin-1-yl)-3-methylcyclobutyl)-3,3-dimethyl-2-oxo-2,3-dihydro-1H-pyrrolo[3,2-b]pyridin-6-yl)-3-isopropyl-3H-imidazo[4,5-c]pyridin-4-yl)amino)-2-methylbenzamide] stands 0.1 nM.
Consider `Cc1cc(F)c(Nc2nc(-c3cnc4c(c3)N([C@H]3C[C@@](C)(N5CCCCC5)C3)C(=O)C4(C)C)cc3ncn(C(C)C)c23)cc1C(=O)NC1(C(F)F)CC1` [Example 216, N-(1-(Difluoromethyl)cyclopropyl)-5-((6-(3,3-dimethyl-1-((1s,3s)-3-methyl-3-(piperidin-1-yl)cyclobutyl)-2-oxo-2,3-dihydro-1H-pyrrolo[3,2-b]pyridin-6-yl)-3-isopropyl-3H-imidazo[4,5-c]pyridin-4-yl)amino)-4-fluoro-2-methylbenzamide], for which the IC50 amounted to 0.1 nM.
Take `Cc1cc(F)c(Nc2nc(-c3ccc4c(c3)N([C@H]3C[C@@H](N5CCCCC5)C3)C(=O)C43CCN(C(=O)C(C)(C)O)CC3)cc3ncn(C(C)C)c23)cc1C(=O)NC(C)C` [Example 55]: the 50% inhibitory concentration (IC50) was determined as 0.2 nM.

For orientation: IC50 means the midpoint of a concentration-inhibition curve.
